Measured values reported in patent publication US20220054465A1, “(PYRIDIN-2-YL)AMINE DERIVATIVES AS TGF-BETA R1 (ALK5) INHIBITORS FOR THE TREATMENT OF CANCER” (Nexys Therapeutics, Inc., priority 2018, published 2022).

Legend:
HEK-Blue TGFβ cell = test: HEK-Blue TGFβ cellular reporter gene assay (SEAP readout); format: cell-based; details: HEK-Blue TGFβ cells stimulated with TGF-β, 22-23 h incubation, SEAP read at 630 nm
How it was run: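 Cells (2.5×10^5 cells/ml suspension) in DMEM with 0.5% heat-inactivated FBS stimulated with TGF-β (6 ng/ml working solution) plus compound at eight 3-fold dilutions for 22-23 h at 37° C. Supernatant SEAP measured with QUANTI-Blue after 30-40 min, absorbance 630 nm; percent inhibition calculated.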

[1] = Tissue exposure (liver and heart) in Balb/c mouse after PO dosing, general PK protocol; format: in vivo; details: PO (intragastric) 10 mg/Kg, liver and heart tissue 0.5-24 h, LC-MS/MS
Protocol: Comparing AUCliver/AUCheart ratio of selected Examples with clinic compounds Galunisertib and LY3200882. Tissue exposure was measured in Balb/c mouse with PO dosing at 10 mpk. […] See Stauber, et al., J. Clin. Pract., 2014, 4(3), 196.
The Balb/c mice were fasted overnight with free access to drinking water prior to treatment. Compounds were formulated in 0.5% CMC/0.5% Tween 80 with or without 1 eq. of NaOH, and administrated intragastrically at 10 mg/Kg. The liver and heart tissues of mice were collected at time points 0.5, 1, 3, 5, 7, 24 h (2 mice per time point) post dose by first sacrificing the animal by C02 inhalation. After flushing with ice saline and removal of excess water on its surface, the liver and heart tissues were weighed and homogenized in 1:5 volumes (w/v) of water with 20% methanol. Tissue samples were kept at −40˜−20° C. prior to analysis. Concentrations of compounds in the liver and hearts were determined using an established liquid chromatography-tandem mass spectrometry (LC-MS/MS) method. Tissue concentration-time data were processed by linear regression analysis. All pharmacokinetic parameters were calculated using non-compartment model of Pharsight Phoenix 8.0.

AUCliver/AUCheart [1]	Structure (SMILES)	IC50 (HEK-Blue TGFβ cell)
27.8	CCc1ccc(Oc2ccnc(Nc3cccc(C(C)(C)C(=O)O)c3)c2)c(-c2ccccc2)n1 [Example 104]	22 nM
29.9	Cc1ccc(Oc2ccnc(Nc3cccc(CCc4nn[nH]n4)c3)c2)c(C)n1 [Example 44, N-(3-(2-(2H-tetrazol-5-yl)ethyl)phenyl)-4-((2,6-dimethylpyridin-3-yl)oxy)pyridin-2-amine]	120 nM
183	CCc1ccc(Oc2ccnc(Nc3cccc(CCc4nn[nH]n4)c3)c2)c(-c2ccccn2)n1 [Example 175, N-(3-(2-(2H-tetrazol-5-yl)ethyl)phenyl)-4-((6-ethyl-[2,2′-bipyridin]-3-yl)oxy)pyridin-2-amine]	44 nM
70.6	Cc1ccc(Oc2ccnc(Nc3cccc(CCc4nn[nH]n4)c3)c2)c(-c2ccccc2)n1 [Example 52, N-(3-(2-(2H-tetrazol-5-yl)ethyl)phenyl)-4-((6-methyl-2-phenylpyridin-3-yl)oxy)pyridin-2-amine]	37 nM
60.9	Cc1cc(Oc2ccnc(Nc3cccc(CCc4nn[nH]n4)c3)c2)c(-c2ccccn2)nc1C [Example 12, N-(3-(2-(2H-tetrazol-5-yl)ethyl)phenyl)-4-((5,6-dimethyl-[2,2′-bipyridin]-3-yl)oxy)pyridin-2-amine]	130 nM
142	Cc1cc(Oc2ccnc(Nc3cccc(Cc4nnn[nH]4)c3)c2)c(-c2ccccn2)nc1C [Example 16, N-(3-((1H-tetrazol-5-yl)methyl)phenyl)-4-((5,6-dimethyl-[2,2′-bipyridin]-3-yl)oxy)pyridin-2-amine]	390 nM
124	CCc1ccc(Oc2ccnc(Nc3cccc(C(C)(C)C(=O)O)c3)c2)c(C)n1 [Example 81, 2-(3-((4-((6-ethyl-2-methylpyridin-3-yl)oxy)pyridin-2-yl)amino)phenyl)-2-methylpropanoic acid]	31 nM
	Cc1ccc(Oc2ccnc(Nc3cccc(C(C)(C)C(=O)O)c3)c2)c(-c2ccccc2Cl)n1 [Example 80]	110 nM
	Cc1cc(Oc2ccnc(Nc3ccc(-c4nnn[nH]4)cc3)c2)c(-c2ccccn2)nc1C [Example 14]	> 10000 nM
	Cc1cc(Oc2ccnc(Nc3cc(CCC(=O)O)ccc3F)c2)c(-c2ccccn2)nc1C [Example 6]	160 nM
	CC(C)n1cc(Oc2ccnc(Nc3cccc(C(C)(C)C(=O)O)c3)c2)c(-c2ccccc2)n1 [Example 124]	190 nM
	c1ccc(-c2nn(C3CCC3)cc2Oc2ccnc(Nc3cccc(Cc4nn[nH]n4)c3)c2)cc1 [Example 201]	89 nM
	CCc1ccc(Oc2ccnc(Nc3cccc(C(C)(C)C(=O)O)c3)c2)c(-c2ccccn2)n1 [Example 84]	55 nM
	Cc1cc(Oc2ccnc(Nc3ccc(Cc4nnnn4CC(=O)O)cc3)c2)c(-c2ccccn2)nc1C [Example 35B]	> 10000 nM
	Cc1cc(Oc2ccnc(Nc3cccc(OCC(=O)O)c3)c2)c(-c2ccccn2)nc1C [Example 76]	> 10000 nM
	Cc1cc(Oc2ccnc(Nc3cccc(CC(C)(C)c4nn[nH]n4)c3)c2)c(-c2ccccn2)nc1C [Example 176]	150 nM
	CCc1nc(C)ccc1Oc1ccnc(Nc2cccc(CCc3nn[nH]n3)c2)c1 [Example 56]	160 nM
	CCc1nc(C)c(Oc2ccnc(Nc3cccc(CCC(=O)O)c3)c2)cc1C [Example 149]	21 nM
	Cc1ccc(Oc2ccnc(Nc3cccc(C(C)(C)C(=O)O)c3)c2)c(-c2ccccc2F)n1 [Example 89]	27 nM
	COc1cc(CCc2nn[nH]n2)cc(Nc2cc(Oc3cc(C)c(C)nc3-c3ccccn3)ccn2)c1 [Example 178]	210 nM
	Cc1cc(Oc2ccnc(Nc3cccc(CCc4nnn[nH]4)n3)c2)c(-c2ccccn2)nc1C [Example 26]	350 nM
	CCCc1ccc(Oc2ccnc(Nc3cccc(C(C)(C)C(=O)O)c3)c2)c(-c2ccccc2)n1 [Example 106]	120 nM
